{"source": "ChEMBL document CHEMBL1155876", "about": "(J Med Chem, 2008)", "key": {"[1]": {"biological_target": "Protein kinase C gamma type (Homo sapiens) (UniProt P05129)", "experiment": "Inhibition of human PKCgamma kinase assessed as residual enzyme activity at 0.1 uM"}, "Homo sapiens [2]": {"species_on_record": "Homo sapiens", "experiment": "Inhibition of human PKBalpha assessed as residual enzyme activity at 0.1 uM"}, "[3]": {"biological_target": "Serine/threonine-protein kinase D2 (Homo sapiens) (UniProt Q9BZL6)", "sequence (Q9BZL6 whole entry)": "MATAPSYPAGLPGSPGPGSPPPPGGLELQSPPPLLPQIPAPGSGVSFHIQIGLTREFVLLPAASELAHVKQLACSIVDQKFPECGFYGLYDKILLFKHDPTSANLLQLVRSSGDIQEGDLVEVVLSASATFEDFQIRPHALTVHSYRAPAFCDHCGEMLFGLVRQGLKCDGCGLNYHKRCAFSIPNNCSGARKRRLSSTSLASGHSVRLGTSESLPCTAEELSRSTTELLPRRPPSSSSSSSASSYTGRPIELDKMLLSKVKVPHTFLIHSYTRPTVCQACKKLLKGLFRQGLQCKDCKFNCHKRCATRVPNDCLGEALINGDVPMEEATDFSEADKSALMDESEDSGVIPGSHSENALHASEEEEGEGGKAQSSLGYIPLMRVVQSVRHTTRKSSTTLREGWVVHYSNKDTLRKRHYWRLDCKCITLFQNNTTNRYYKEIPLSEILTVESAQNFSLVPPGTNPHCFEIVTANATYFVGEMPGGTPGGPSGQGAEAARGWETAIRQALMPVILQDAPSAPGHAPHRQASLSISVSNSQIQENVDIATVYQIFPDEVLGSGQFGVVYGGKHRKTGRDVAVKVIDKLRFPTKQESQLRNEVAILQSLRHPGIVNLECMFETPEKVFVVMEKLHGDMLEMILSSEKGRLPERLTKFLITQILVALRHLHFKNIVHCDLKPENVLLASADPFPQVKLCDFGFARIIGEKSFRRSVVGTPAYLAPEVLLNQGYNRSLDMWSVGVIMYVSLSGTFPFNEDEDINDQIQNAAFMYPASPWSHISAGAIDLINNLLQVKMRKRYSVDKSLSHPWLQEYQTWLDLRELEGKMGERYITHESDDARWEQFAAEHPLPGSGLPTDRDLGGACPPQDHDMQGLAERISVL", "experiment": "Inhibition of human PKD2 kinase assessed as residual enzyme activity at 0.1 uM"}, "[4]": {"biological_target": "Ephrin type-A receptor 1 (Homo sapiens) (UniProt P21709)", "experiment": "Inhibition of human EphA1 kinase assessed as residual enzyme activity at 0.1 uM"}, "[5]": {"biological_target": "ALK tyrosine kinase receptor (Homo sapiens) (UniProt Q9UM73)", "experiment": "Inhibition of human ALK assessed as residual enzyme activity at 0.1 uM"}, "[6]": {"biological_target": "Tyrosine-protein kinase BTK (Homo sapiens) (UniProt Q06187)", "experiment": "Inhibition of human BTK kinase assessed as residual enzyme activity at 0.1 uM"}, "[7]": {"biological_target": "Tyrosine-protein kinase receptor UFO (Homo sapiens) (UniProt P30530)", "experiment": "Inhibition of human Axl kinase assessed as residual enzyme activity at 0.1 uM"}, "[8]": {"biological_target": "Platelet-derived growth factor receptor alpha (Homo sapiens) (UniProt P16234)", "experiment": "Inhibition of human PDGFRalpha assessed as residual enzyme activity at 0.1 uM"}, "[9]": {"biological_target": "Platelet-derived growth factor receptor beta (Homo sapiens) (UniProt P09619)", "experiment": "Inhibition of human PDGFRbeta kinase assessed as residual enzyme activity at 0.1 uM"}, "HCT-116 [10]": {"tested_on": "HCT-116", "experiment": "Antitumor activity in human HCT116 cells xenografted athymic mouse assessed as growth inhibition at 2.5 mg/kg, po qd", "format": "functional", "details": "read-out: TGI"}, "[11]": {"biological_target": "Tyrosine-protein kinase Blk (Homo sapiens) (UniProt P51451)", "experiment": "Inhibition of human Blk kinase assessed as residual enzyme activity at 0.1 uM"}, "[12]": {"biological_target": "NUAK family SNF1-like kinase 1 (Homo sapiens) (UniProt O60285)", "sequence (O60285 whole entry)": "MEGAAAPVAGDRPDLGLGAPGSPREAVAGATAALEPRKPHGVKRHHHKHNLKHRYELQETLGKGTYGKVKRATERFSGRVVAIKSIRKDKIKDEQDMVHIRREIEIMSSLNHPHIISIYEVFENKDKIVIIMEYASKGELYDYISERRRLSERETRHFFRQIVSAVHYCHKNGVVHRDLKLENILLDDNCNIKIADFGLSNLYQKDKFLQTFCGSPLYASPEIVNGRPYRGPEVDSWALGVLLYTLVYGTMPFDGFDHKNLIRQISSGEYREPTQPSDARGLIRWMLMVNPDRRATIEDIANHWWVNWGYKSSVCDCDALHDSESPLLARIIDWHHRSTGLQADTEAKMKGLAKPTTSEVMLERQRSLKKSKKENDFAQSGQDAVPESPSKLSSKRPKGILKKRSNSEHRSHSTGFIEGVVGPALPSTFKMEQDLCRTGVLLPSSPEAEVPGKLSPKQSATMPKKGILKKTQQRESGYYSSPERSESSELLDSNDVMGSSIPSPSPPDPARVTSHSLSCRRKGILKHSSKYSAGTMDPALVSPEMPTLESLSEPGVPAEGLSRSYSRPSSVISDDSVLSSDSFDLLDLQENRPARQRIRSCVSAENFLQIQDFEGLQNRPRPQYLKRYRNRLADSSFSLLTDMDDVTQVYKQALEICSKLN", "experiment": "Inhibition of human ARK5 kinase assessed as residual enzyme activity at 0.1 uM"}, "[13]": {"biological_target": "Myotonin-protein kinase (Homo sapiens) (UniProt Q09013)", "experiment": "Inhibition of human DMPK assessed as residual enzyme activity at 0.1 uM"}, "[14]": {"biological_target": "Epidermal growth factor receptor (Homo sapiens) (UniProt P00533)", "experiment": "Inhibition of human EGFR kinase assessed as residual enzyme activity at 0.1 uM"}, "[15]": {"biological_target": "Ephrin type-B receptor 4 (Homo sapiens) (UniProt P54760)", "sequence (P54760 whole entry)": "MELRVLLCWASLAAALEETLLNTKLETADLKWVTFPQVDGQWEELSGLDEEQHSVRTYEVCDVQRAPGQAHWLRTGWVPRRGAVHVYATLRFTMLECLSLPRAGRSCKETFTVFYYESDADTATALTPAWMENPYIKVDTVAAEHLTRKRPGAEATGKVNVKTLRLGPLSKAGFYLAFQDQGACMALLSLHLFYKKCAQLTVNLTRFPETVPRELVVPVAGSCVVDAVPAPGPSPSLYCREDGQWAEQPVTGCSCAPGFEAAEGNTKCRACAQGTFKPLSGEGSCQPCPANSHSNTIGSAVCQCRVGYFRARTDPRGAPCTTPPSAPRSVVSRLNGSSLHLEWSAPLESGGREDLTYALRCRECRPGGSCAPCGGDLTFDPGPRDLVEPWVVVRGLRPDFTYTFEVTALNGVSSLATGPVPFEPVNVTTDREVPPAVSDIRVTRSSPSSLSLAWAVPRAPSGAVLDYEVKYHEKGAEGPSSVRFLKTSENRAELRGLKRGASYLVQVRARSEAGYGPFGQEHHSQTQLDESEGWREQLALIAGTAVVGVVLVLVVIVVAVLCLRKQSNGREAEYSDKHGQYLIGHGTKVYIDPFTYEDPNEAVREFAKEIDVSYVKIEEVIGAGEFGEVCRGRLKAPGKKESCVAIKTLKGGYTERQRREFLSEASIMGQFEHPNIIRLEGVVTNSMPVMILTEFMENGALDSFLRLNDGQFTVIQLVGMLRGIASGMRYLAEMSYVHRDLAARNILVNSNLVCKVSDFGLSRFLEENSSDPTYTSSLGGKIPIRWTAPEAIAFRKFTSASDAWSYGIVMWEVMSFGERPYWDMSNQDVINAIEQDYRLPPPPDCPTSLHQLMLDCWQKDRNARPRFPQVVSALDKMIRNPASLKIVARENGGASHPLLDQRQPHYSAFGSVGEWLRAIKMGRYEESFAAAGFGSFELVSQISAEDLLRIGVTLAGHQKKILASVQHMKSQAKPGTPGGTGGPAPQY", "experiment": "Inhibition of human EphB4 kinase assessed as residual enzyme activity at 0.1 uM"}, "[16]": {"biological_target": "Mast/stem cell growth factor receptor Kit (Homo sapiens) (UniProt P10721)", "experiment": "Inhibition of human cKit assessed as residual enzyme activity at 0.1 uM"}, "[17]": {"biological_target": "Serine/threonine-protein kinase Nek6 (Homo sapiens) (UniProt Q9HC98)", "sequence (Q9HC98 whole entry)": "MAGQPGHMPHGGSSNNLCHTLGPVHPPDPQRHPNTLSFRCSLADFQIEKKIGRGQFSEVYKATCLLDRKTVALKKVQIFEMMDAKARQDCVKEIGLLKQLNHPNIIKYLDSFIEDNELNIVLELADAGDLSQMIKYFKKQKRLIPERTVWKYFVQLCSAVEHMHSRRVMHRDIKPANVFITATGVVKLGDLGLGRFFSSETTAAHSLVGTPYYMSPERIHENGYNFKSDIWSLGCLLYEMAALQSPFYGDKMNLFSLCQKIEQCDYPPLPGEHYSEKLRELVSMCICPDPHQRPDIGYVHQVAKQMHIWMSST", "experiment": "Inhibition of human NEK6 kinase assessed as residual enzyme activity at 0.1 uM"}, "[18]": {"biological_target": "Inhibitor of nuclear factor kappa-B kinase subunit beta (Homo sapiens) (UniProt O14920)", "experiment": "Inhibition of human IKK-beta kinase assessed as residual enzyme activity at 0.1 uM"}, "[19]": {"biological_target": "SRSF protein kinase 1 (Homo sapiens) (UniProt Q96SB4)", "experiment": "Inhibition of human SRPK1 kinase assessed as residual enzyme activity at 0.1 uM"}, "[20]": {"biological_target": "Hepatocyte growth factor receptor (Homo sapiens) (UniProt P08581)", "experiment": "Inhibition of human Met assessed as residual enzyme activity at 0.1 uM"}, "[21]": {"biological_target": "Homeodomain-interacting protein kinase 2 (Homo sapiens) (UniProt Q9H2X6)", "experiment": "Inhibition of human HIPK2 kinase assessed as residual enzyme activity at 0.1 uM"}, "[22]": {"biological_target": "Casein kinase I isoform delta (Homo sapiens) (UniProt P48730)", "experiment": "Inhibition of human CK1delta kinase assessed as residual enzyme activity at 0.1 uM"}, "Homo sapiens [23]": {"species_on_record": "Homo sapiens", "experiment": "Inhibition of human CDK5/p25 kinase assessed as residual enzyme activity at 0.1 uM"}, "[24]": {"biological_target": "Mitogen-activated protein kinase 1 (Homo sapiens) (UniProt P28482)", "experiment": "Inhibition of human MAPK1 kinase assessed as residual enzyme activity at 0.1 uM"}, "[25]": {"biological_target": "Inhibitor of nuclear factor kappa-B kinase subunit alpha (Homo sapiens) (UniProt O15111)", "experiment": "Inhibition of human IKKalpha kinase assessed as residual enzyme activity at 0.1 uM"}, "[26]": {"biological_target": "Protein kinase C theta type (Homo sapiens) (UniProt Q04759)", "experiment": "Inhibition of human PKCtheta kinase assessed as residual enzyme activity at 0.1 uM"}, "Homo sapiens [27]": {"species_on_record": "Homo sapiens", "experiment": "Inhibition of human PKG1alpha kinase assessed as residual enzyme activity at 0.1 uM"}, "[28]": {"biological_target": "Ephrin type-A receptor 5 (Homo sapiens) (UniProt P54756)", "experiment": "Inhibition of human EphA5 kinase assessed as residual enzyme activity at 0.1 uM"}, "[29]": {"biological_target": "BDNF/NT-3 growth factors receptor (Homo sapiens) (UniProt Q16620)", "experiment": "Inhibition of TrkB assessed as residual enzyme activity at 1 uM"}, "[30]": {"biological_target": "Receptor-interacting serine/threonine-protein kinase 2 (Homo sapiens) (UniProt O43353)", "sequence (O43353 whole entry)": "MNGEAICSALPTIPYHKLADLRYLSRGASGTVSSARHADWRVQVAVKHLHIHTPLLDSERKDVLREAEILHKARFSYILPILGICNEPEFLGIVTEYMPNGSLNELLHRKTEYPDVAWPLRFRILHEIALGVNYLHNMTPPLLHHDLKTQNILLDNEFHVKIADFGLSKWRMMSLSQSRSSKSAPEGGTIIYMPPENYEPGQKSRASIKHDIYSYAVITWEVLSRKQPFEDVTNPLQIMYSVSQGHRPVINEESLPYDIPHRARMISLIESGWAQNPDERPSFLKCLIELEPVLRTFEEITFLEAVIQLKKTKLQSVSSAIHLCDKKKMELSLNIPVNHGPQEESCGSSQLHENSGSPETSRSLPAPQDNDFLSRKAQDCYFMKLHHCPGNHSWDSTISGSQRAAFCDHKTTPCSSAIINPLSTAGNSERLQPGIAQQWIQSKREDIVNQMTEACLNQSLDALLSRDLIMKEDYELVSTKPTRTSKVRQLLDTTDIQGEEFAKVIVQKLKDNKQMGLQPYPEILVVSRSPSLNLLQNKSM", "experiment": "Inhibition of human RIPK2 kinase assessed as residual enzyme activity at 0.1 uM"}, "HCT-116 [31]": {"tested_on": "HCT-116", "experiment": "Antiproliferative activity against human HCT116 cells"}, "[32]": {"biological_target": "Serine/threonine-protein kinase PLK3 (Homo sapiens) (UniProt Q9H4B4)", "sequence (Q9H4B4 whole entry, looked up)": "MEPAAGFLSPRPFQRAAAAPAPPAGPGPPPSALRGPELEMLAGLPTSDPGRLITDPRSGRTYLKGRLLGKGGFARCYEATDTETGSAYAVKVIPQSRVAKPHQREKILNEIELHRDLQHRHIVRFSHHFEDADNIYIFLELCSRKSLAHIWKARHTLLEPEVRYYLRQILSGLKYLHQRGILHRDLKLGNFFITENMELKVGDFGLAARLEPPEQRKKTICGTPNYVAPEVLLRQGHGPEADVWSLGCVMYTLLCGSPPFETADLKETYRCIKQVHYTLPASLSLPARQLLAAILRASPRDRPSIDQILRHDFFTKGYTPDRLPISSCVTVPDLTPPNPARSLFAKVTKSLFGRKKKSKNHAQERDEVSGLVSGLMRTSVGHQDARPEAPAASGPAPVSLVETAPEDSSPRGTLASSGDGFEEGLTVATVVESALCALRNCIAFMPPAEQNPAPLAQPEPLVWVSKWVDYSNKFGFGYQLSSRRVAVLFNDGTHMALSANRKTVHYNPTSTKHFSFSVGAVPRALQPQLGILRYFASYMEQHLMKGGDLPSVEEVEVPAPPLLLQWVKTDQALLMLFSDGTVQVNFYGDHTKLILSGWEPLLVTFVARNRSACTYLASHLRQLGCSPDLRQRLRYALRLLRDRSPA", "experiment": "Inhibition of Plk3 at assessed as residual enzyme activity at 1 uM"}, "[33]": {"biological_target": "Proto-oncogene tyrosine-protein kinase receptor Ret (Homo sapiens) (UniProt P07949)", "experiment": "Inhibition of human Ret kinase assessed as residual enzyme activity at 0.1 uM"}, "[34]": {"biological_target": "Maternal embryonic leucine zipper kinase (Homo sapiens) (UniProt Q14680)", "experiment": "Inhibition of human MELK assessed as residual enzyme activity at 0.1 uM"}, "[35]": {"biological_target": "Interleukin-1 receptor-associated kinase 1 (Homo sapiens) (UniProt P51617)", "experiment": "Inhibition of human IRAK1 kinase assessed as residual enzyme activity at 0.1 uM"}, "[36]": {"biological_target": "Protein kinase C alpha type (Homo sapiens) (UniProt P17252)", "experiment": "Inhibition of human PKCalpha assessed as residual enzyme activity at 0.1 uM"}, "Homo sapiens [37]": {"species_on_record": "Homo sapiens", "experiment": "Inhibition of human PKA assessed as residual enzyme activity at 0.1 uM"}, "[38]": {"biological_target": "Mitogen-activated protein kinase kinase kinase 9 (Homo sapiens) (UniProt P80192)", "experiment": "Inhibition of human MLK1 kinase assessed as residual enzyme activity at 0.1 uM"}, "[39]": {"biological_target": "Macrophage colony-stimulating factor 1 receptor (Homo sapiens) (UniProt P07333)", "experiment": "Inhibition of human Fms kinase assessed as residual enzyme activity at 0.1 uM"}, "HCT-116 [40]": {"tested_on": "HCT-116", "experiment": "Antitumor activity in human HCT116 cells xenografted athymic mouse assessed as growth inhibition at 5 mg/kg, po qd", "format": "functional", "details": "read-out: TGI"}}, "data": [{"smiles": "CCN1C(=O)C(C)(C)c2cc3[nH]c4c(c3cc21)CCCc1c(C)n[nH]c1-4", "values": [{"measurement": "Activity", "setting": "[1]", "value": 100, "unit": "%"}, {"measurement": "Activity", "setting": "Homo sapiens [2]", "value": 100, "unit": "%"}, {"measurement": "Activity", "setting": "[3]", "value": 105, "unit": "%"}, {"measurement": "Activity", "setting": "[4]", "value": 79, "unit": "%"}, {"measurement": "Activity", "setting": "[5]", "value": 23, "unit": "%"}, {"measurement": "Activity", "setting": "[6]", "value": 86, "unit": "%"}, {"measurement": "Activity", "setting": "[7]", "value": 66, "unit": "%"}, {"measurement": "Activity", "setting": "[8]", "value": 91, "unit": "%"}, {"measurement": "Activity", "setting": "[9]", "value": 103, "unit": "%"}, {"measurement": "inhibition in vivo at 2.5 mg/kg", "setting": "HCT-116 [10]", "value": 82, "unit": "%"}, {"measurement": "Activity", "setting": "[11]", "value": 62, "unit": "%"}, {"measurement": "Activity", "setting": "[12]", "value": 9, "unit": "%"}, {"measurement": "Activity", "setting": "[13]", "value": 97, "unit": "%"}, {"measurement": "Activity", "setting": "[14]", "value": 107, "unit": "%"}, {"measurement": "Activity", "setting": "[15]", "value": 99, "unit": "%"}, {"measurement": "Activity", "setting": "[16]", "value": 77, "unit": "%"}, {"measurement": "Activity", "setting": "[17]", "value": 95, "unit": "%"}, {"measurement": "Activity", "setting": "[18]", "value": 114, "unit": "%"}, {"measurement": "Activity", "setting": "[19]", "value": 104, "unit": "%"}, {"measurement": "Activity", "setting": "[20]", "value": 68, "unit": "%"}, {"measurement": "Activity", "setting": "[21]", "value": 98, "unit": "%"}, {"measurement": "Activity", "setting": "[22]", "value": 96, "unit": "%"}, {"measurement": "Activity", "setting": "Homo sapiens [23]", "value": 89, "unit": "%"}, {"measurement": "Activity", "setting": "[24]", "value": 112, "unit": "%"}, {"measurement": "Activity", "setting": "[25]", "value": 110, "unit": "%"}, {"measurement": "Activity", "setting": "[26]", "value": 95, "unit": "%"}, {"measurement": "Activity", "setting": "Homo sapiens [27]", "value": 100, "unit": "%"}, {"measurement": "Activity", "setting": "[28]", "value": 105, "unit": "%"}, {"measurement": "Activity", "setting": "[29]", "value": 2, "unit": "%"}, {"measurement": "Activity", "setting": "[30]", "value": 95, "unit": "%"}, {"measurement": "IC50", "setting": "HCT-116 [31]", "value": 70, "unit": "nM"}, {"measurement": "Activity", "setting": "[32]", "value": 103, "unit": "%"}, {"measurement": "Activity", "setting": "[33]", "value": 1, "unit": "%"}, {"measurement": "Activity", "setting": "[34]", "value": 53, "unit": "%"}, {"measurement": "Activity", "setting": "[35]", "value": 93, "unit": "%"}, {"measurement": "Activity", "setting": "[36]", "value": 103, "unit": "%"}, {"measurement": "Activity", "setting": "Homo sapiens [37]", "value": 99, "unit": "%"}, {"measurement": "Activity", "setting": "[38]", "value": 16, "unit": "%"}, {"measurement": "Activity", "setting": "[39]", "value": 2, "unit": "%"}, {"measurement": "inhibition in vivo at 5 mg/kg", "setting": "HCT-116 [40]", "value": 92, "unit": "%"}]}]}
